# Data as given in ChEMBL document CHEMBL1201862, “PubChem BioAssay data set” (2004).
# Active and inactive are the calls of the source.
# How the values were obtained:
# [1] = molecular target: Cytochrome P450 2C19 (Homo sapiens, UniProt P33261); experiment: Cytochrome panel assay with activity outcomes. Panel member name: p450-cyp2c19 Compounds with AC50 equal or less than 10 uM are considered active; type: functional
# [2] = molecular target: Cytochrome P450 2C9 (Homo sapiens, UniProt P11712)
# Cytochrome P450 2C9, sequence (P11712 whole entry): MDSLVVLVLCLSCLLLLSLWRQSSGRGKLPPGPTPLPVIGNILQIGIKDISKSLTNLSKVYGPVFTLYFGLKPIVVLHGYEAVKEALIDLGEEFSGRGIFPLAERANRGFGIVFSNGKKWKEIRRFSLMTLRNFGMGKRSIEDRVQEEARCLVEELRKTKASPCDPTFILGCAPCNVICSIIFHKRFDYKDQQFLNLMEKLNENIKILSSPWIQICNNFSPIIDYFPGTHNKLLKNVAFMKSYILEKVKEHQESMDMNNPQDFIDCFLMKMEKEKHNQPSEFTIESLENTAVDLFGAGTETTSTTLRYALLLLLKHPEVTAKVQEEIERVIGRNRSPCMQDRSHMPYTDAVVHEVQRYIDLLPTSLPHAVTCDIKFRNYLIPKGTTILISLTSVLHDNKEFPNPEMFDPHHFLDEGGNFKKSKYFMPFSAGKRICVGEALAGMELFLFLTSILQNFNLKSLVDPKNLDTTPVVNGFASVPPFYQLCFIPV
# [3] = cytotoxicity toward NIH3T3 fibroblasts, dose response, counter-screen, cell-based, ATP luminescence, mouse fibroblasts (AID 2010); type: functional;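 further: cells exposed to compound for about 90 hours before reading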
# [4] = inhibitors of intracellular T. cruzi replication, confirmation, NIH3T3 host cells, beta-gal luminescence (AID 2044); type: functional, cell-based;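 further: intracellular parasites grown in NIH/3T3 mouse fibroblasts as host cells; luminescent beta-galactosidase reporter signal from transgenic T. cruzi replicating inside host cells; inhibitors lower the luminescence signal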
# [5] = HEp-2 cell cytotoxicity, dose response, cytotoxicity control for RSV inhibitor project, HTS (AID 2410); type: functional; conditions: human respiratory syncytial virus
# [6] = tested on: Streptococcus; experiment: Group A Streptococcus viability loss, dose response, counter-screen for streptokinase expression inhibitor project, luminescence, BacTiterGlo (AID 1915); type: functional, organism-based;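 further: potency for reduction of bacterial viability or growth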
# [7] = tested on: Streptococcus sp. 'group A'; experiment: growth inhibition of control SK(-) GAS strain, dose response, counter-screen for streptokinase expression inhibitor project, luminescence, kanamycin, BacTiterGlo, confirmation (AID 1900); type: functional, organism-based
# [8] = molecular target: T1, Streptokinase A (Streptococcus pyogenes serotype M1, UniProt P10520); experiment: S. pyogenes streptokinase expression inhibitors, potency, dose response, plasminogen activation absorbance, OD405 (AID 1914); type: functional, Streptococcus pyogenes M1 GAS;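 further: secreted streptokinase activity via plasminogen activation per viability signal from cell pellet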
# T1 sequence (P10520 whole entry): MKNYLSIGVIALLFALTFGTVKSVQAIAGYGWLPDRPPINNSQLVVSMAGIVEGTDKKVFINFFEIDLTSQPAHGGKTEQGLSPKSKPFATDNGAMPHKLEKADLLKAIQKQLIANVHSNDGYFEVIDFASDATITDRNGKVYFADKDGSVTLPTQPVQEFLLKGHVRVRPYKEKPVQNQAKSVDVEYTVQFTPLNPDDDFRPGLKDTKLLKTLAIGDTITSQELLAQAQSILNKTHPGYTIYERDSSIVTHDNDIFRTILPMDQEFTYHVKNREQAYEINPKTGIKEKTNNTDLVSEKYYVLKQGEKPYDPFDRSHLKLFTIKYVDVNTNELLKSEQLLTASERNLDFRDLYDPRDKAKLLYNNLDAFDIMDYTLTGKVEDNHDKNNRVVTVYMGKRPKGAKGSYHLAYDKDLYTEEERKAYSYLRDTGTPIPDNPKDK
# [9] = molecular target: Cytochrome P450 3A4 (Homo sapiens, UniProt P08684);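 further: CYP3A4 tested as one member of a cytochrome P450 panel screen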
# Cytochrome P450 3A4, sequence (P08684 whole entry): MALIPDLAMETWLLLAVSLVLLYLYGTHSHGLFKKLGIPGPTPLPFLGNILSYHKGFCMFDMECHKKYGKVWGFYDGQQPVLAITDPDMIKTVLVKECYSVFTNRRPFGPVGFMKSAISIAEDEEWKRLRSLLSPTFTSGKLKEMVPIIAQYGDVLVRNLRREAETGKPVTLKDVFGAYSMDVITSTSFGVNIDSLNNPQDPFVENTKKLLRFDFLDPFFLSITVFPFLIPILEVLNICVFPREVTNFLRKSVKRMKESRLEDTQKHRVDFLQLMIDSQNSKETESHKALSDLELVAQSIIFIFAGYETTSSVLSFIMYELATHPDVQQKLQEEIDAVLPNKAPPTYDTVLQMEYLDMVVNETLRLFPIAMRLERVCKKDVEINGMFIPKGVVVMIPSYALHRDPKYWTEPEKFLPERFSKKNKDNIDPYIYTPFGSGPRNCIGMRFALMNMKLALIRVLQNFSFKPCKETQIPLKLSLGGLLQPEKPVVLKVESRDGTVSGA
# Cytochrome P450 2C19, sequence (P33261 whole entry): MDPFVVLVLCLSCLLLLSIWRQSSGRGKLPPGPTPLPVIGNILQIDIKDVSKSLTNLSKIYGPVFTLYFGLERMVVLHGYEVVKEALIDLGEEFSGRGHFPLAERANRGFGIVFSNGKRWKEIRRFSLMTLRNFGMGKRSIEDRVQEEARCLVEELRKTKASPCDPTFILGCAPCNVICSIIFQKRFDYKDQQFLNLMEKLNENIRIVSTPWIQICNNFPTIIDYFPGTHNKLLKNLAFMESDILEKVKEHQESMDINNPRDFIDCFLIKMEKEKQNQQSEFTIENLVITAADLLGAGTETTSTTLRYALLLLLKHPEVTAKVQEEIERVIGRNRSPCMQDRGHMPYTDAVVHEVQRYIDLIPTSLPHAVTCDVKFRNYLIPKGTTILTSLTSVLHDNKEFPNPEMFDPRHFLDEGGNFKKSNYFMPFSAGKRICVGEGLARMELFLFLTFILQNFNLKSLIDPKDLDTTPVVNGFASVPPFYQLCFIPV
smiles,measurement,setting,value
COc1ccc(Oc2ncc3nc(C)c(=O)n(C[C@H]4CCCO4)c3n2)cc1,AC50,[1]; read-out: AC50,25.1 µM (inconclusive)
same,AC50,[2],39.8 µM (inconclusive)
Cc1ccc(OC(=O)c2cccc(C(=O)Oc3ccc(C)cc3)n2)cc1,AC50,[1],inconclusive
CC(C)NCC(O)COCCOc1ccc(Br)cc1 (configuration not stated),EC50,[3],> 30 µM (not active)
same,EC50,[4],1.1 µM (active)
Cc1ccc(C2c3c(C)nn(-c4ccc([N+](=O)[O-])cc4)c3N=C3C(=O)Nc4ccccc4N32)cc1 (configuration not stated),EC50,[3],> 60 µM (not active)
same,EC50,[4],1.45 µM (active)
COc1cccc(-c2nc(NC3CC3)c3ccccc3n2)c1,AC50,[1]; read-out: AC50,10 µM (inconclusive)
O=C(c1ccco1)N1CCC[C@@]2(CCN(C(c3ccccc3)c3ccccc3)C2)C1,AC50,[2],31.6 µM (inconclusive)
Cc1c(C(O)CN2CCN(Cc3ccc4c(c3)OCO4)CC2)c2ccccc2n1C (configuration not stated),EC50,[3],> 60 µM (not active)
same,EC50,[4],2.47 µM (active)
CC(=O)c1coc2c1cc(O)c1ccccc12,CC50,[5],> 50 µM (active)
CN(CCOc1ccccc1)C(=O)c1cc([N+](=O)[O-])cc([N+](=O)[O-])c1,EC50,[3],> 30 µM (not active)
same,EC50,[4],0.7 µM (active)
CCc1nc2ccccc2nc1O,CC50,[5],28.8 µM (active)
CCN1C(=O)N[C@@H](CCc2ccccc2)C(C(=O)OC)=C1C,CC50,[5],29.9 µM (active)
O=C(Cn1ccc(C(F)(F)F)n1)N=Nc1c(O)[nH]c2ccc(Br)cc12,CC50,[5],> 50 µM (active)
Cc1cccc(CSc2ncnc3c2cnn3Cc2ccccc2)c1,EC50,[6],> 150 µM (not active)
same,EC50,[7],23 µM (active)
same,EC50,[8],> 150 µM (not active)
CC1N(C)c2cc(NC(=O)c3ccco3)c(P(=O)(Nc3ccc([N+](=O)[O-])cc3)N3CCOCC3)cc2C1(C)C (configuration not stated),CC50,[5],18 µM (active)
COc1ncc2nc(-c3cn(C)c4ccccc34)c(=O)n(Cc3ccc(F)cc3)c2n1,AC50,[1]; read-out: AC50,15.8 µM (inconclusive)
C=CCCN(C1CCCC1)S(=O)(=O)c1ccccc1Br,CC50,[5],> 50 µM (active)
C/C(CCC(=O)OC[C@@H]1O[C@H](C#Cc2ccccc2)C=C[C@@H]1Oc1ccc(C)cc1)=N/O[C@@H](C)CN1CCCCc2nc(C)c(C)cc21,AC50,[1]; read-out: AC50,1.26 µM (inconclusive)
O=C(c1ccccc1Cl)N1CCN(S(=O)(=O)c2cccs2)CC1,EC50,[6],> 150 µM (not active)
same,EC50,[7],> 150 µM (not active)
same,EC50,[8],> 150 µM (not active)
CCC1CCCCN1c1nc2c(C=O)c(C)nn2c2ccccc12 (configuration not stated),CC50,[5],20.5 µM (active)
CCC/C=C(\CCC)C(NS(=O)(=O)CC12CCC(CC1=O)C2(C)C)c1ccc(C(=O)OC)cc1 (configuration not stated),AC50,[1]; read-out: AC50,25.1 µM (inconclusive)
CCOC(=O)c1c(C)[nH]c(C(=O)COC(=O)c2cc(C)oc2C)c1C,CC50,[5],> 50 µM (active)
O=C(CCCN1C(=O)/C(=C\c2cccs2)SC1=S)Nc1cc([N+](=O)[O-])ccc1O,EC50,[6],> 150 µM (not active)
same,EC50,[7],4.29 µM (active)
same,EC50,[8],25.3 µM (active)
CN(C(=S)NC(=O)c1ccccc1)C1CCCCC1,EC50,[6],> 150 µM (not active)
same,EC50,[7],> 150 µM (not active)
same,EC50,[8],> 150 µM (not active)
O=C(C(Cc1ccccc1)N1C(=O)C2C3CCC(C3)C2C1=O)N1CCCCC1 (configuration not stated),AC50,[1]; read-out: AC50,7.08 µM (inconclusive)
Fc1ccc(N2CCN(C3=Nc4cccc5cccc3c45)CC2)cc1,EC50,[3],> 30 µM (not active)
same,EC50,[4],1.74 µM (active)
CCn1c(SCC(=O)OC)nnc1C1CCCCC1,AC50,[1]; read-out: AC50,14.1 µM (inconclusive)
O=C(NCC1CCCO1)c1cc2c3ccccc3nc-2c(-c2cccc(Cl)c2)[nH]1 (configuration not stated),EC50,[6],25.3 µM (active)
same,EC50,[7],4.12 µM (active)
same,EC50,[8],> 150 µM (not active)
CCN1CCN(S(=O)(=O)c2ccc(Cl)c(C(=O)Nc3nnc(CC(C)C)s3)c2)CC1,AC50,[1]; read-out: AC50,39.8 µM (inconclusive)
same,AC50,[2],25.1 µM (inconclusive)
CCc1c(C)nc(N)n2c(SCC(=O)Nc3ccccc3)nnc12,AC50,[1]; read-out: AC50,22.4 µM (inconclusive)
Cc1ccc2nc(O)c(COC(=O)C3CCCCC3)cc2c1,CC50,[5],> 50 µM (active)
CN(C(=S)NC(=O)c1ccccc1Br)C1CCCCC1,AC50,[9],2.51 µM (inconclusive)
CCn1cc(CN2CCCC(C(=O)c3ccc(-c4ccccc4)cc3)C2)cn1 (configuration not stated),EC50,[3],16.7 µM (active)
same,EC50,[4],0.222 µM (active)
FC(F)Sc1ccc(NC(S)=NC(c2ccccc2)c2ccccc2)cc1,EC50,[6],3.15 µM (active)
same,EC50,[7],2.4 µM (active)
O=S(=O)(Nc1cccc2c1CCCC2)c1ccc(Cl)cc1,EC50,[6],> 150 µM (not active)
same,EC50,[7],4.86 µM (active)
same,EC50,[8],97.8 µM (inconclusive)
O=C(/C=C/c1cc[n+](CC(=O)c2ccc3cccc4c3c2CC4)cc1)c1ccc2cccc3c2c1CC3,EC50,[3],> 60 µM (not active)
same,EC50,[4],0.146 µM (active)
COc1ccc(C2(C)NC(=O)N(CC(=O)Nc3ccc(-c4nc5ccc(C)cc5s4)cc3)C2=O)cc1 (configuration not stated),CC50,[5],29.8 µM (active)
CN(C)CCCNc1ncc(C(F)(F)F)cc1Cl,EC50,[3],> 30 µM (not active)
same,EC50,[4],0.659 µM (active)
O=C1NC(=O)N(CCc2ccccc2)C(=O)/C1=C(O)/C=C/c1c[nH]c2ccccc12,EC50,[6],5.6 µM (active)
same,EC50,[7],5.47 µM (active)
same,EC50,[8],> 150 µM (not active)
Cc1ccc(Cn2cccc(NC(=O)NCc3ccccc3)c2=O)cc1,AC50,[1]; read-out: AC50,5.01 µM (inconclusive)
same,AC50,[2],14.1 µM (inconclusive)
COc1ccc(Oc2nc(C(F)(F)F)nc3ccccc23)cc1,EC50,[6],> 150 µM (not active)
same,EC50,[7],29.1 µM (active)
same,EC50,[8],46.8 µM (active)
Cc1cc(N2CCOCC2)nc2ccc(NC(=O)CCC(=O)N3CCN(c4ccc(F)cc4)CC3)cc12,CC50,[5],> 12.5 µM (active)
CCOCCCN=C(S)NCCNc1nc2c(C)cccc2cc1C#N,EC50,[3],> 60 µM (not active)
same,EC50,[4],2.73 µM (active)
O=C(CCC(=O)Nc1ccccc1)NNC(=O)c1cccs1,AC50,[1]; read-out: AC50,39.8 µM (inconclusive)
same,AC50,[2],31.6 µM (inconclusive)
C=CCn1c(SCc2cc(=O)n3ccsc3n2)nc2scc(C3CC3)c2c1=O,CC50,[5],33.1 µM (active)
Cc1cnn(-c2nc(-c3ccccc3)cc(-c3ccccc3)n2)c1,EC50,[6],> 150 µM (not active)
same,EC50,[7],9.49 µM (active)
same,EC50,[8],27.2 µM (active)
CCCCCSc1nc2c(c(=O)[nH]c(=O)n2C)n1C,CC50,[5],> 50 µM (active)
Cc1ccc2nc(O)c(CN(CCCN(C)C)C(S)=NCCc3ccccc3)cc2c1,EC50,[3],> 60 µM (not active)
same,EC50,[4],0.409 µM (active)
CCN(CC)CCN(C)C(=O)CCc1nnc(-c2ccc(C)s2)o1,EC50,[3],> 60 µM (not active)
same,EC50,[4],1.35 µM (active)
O=C(Nc1cccc(-c2csc(Nc3ccc(Cl)cc3)n2)c1)c1ccccc1,EC50,[6],5.66 µM (active)
same,CC50,[5],10.3 µM (active)
same,EC50,[7],4.01 µM (active)
same,EC50,[8],> 150 µM (not active)
CCC(C(=O)NC(C)CCc1ccccc1)n1nc(C)n2c(cc3occc32)c1=O (configuration not stated),CC50,[5],39.2 µM (active)
O=C(Nc1nc(-c2ccccn2)cs1)C1CC1,EC50,[6],> 150 µM (not active)
same,EC50,[7],> 150 µM (not active)
same,EC50,[8],> 150 µM (not active)
CN1CCC(OC(=O)c2ccccc2Cl)CC1,EC50,[3],10.5 µM (active)
same,EC50,[4],0.178 µM (active)
CC1=C(C#N)C(NC(=O)C2CCCCC2)(C(F)(F)F)C(=O)N1 (configuration not stated),AC50,[1]; read-out: AC50,28.2 µM (inconclusive)
same,AC50,[2],7.94 µM (inconclusive)
Sc1nnc(-c2cccs2)n1/N=C/c1cn(-c2ccccc2)nc1-c1ccccc1,EC50,[6],71.7 µM (active)
same,EC50,[7],6.85 µM (active)
same,EC50,[8],> 150 µM (not active)
NC(=S)N/N=C\c1c(OCc2ccccc2Cl)ccc2ccccc12,EC50,[6],> 150 µM (not active)
same,EC50,[7],2.39 µM (active)
same,EC50,[8],> 150 µM (not active)
FC(F)(F)c1ccccc1/C=N/n1c(S)nnc1COc1ccccc1,CC50,[5],32.1 µM (active)
COC(=O)[C@@H]1CC[C@H](C)[C@@H](c2ccc(C)cc2)N1C(=O)c1ccc(/C=N/O[C@@H](C)c2cn([C@H](CO)Cc3ccccc3)nn2)cc1,EC50,[3],> 60 µM (inconclusive)
same,EC50,[4],0.891 µM (active)
Cn1c[n+](C)cc1/C=N/O,AC50,[1]; read-out: AC50,8.91 µM (inconclusive)
C=CCNC(=O)O/N=C/c1csc([N+](=O)[O-])c1,EC50,[3],> 60 µM (not active)
same,EC50,[4],1.93 µM (active)
COc1ccc(CCNC=C2C(=O)CC(C)(C)CC2=O)cc1,AC50,[1]; read-out: AC50,28.2 µM (inconclusive)
same,AC50,[2],12.6 µM (inconclusive)
Cn1c(=O)c2[nH]c(-c3ccc(S(=O)(=O)O)cc3)nc2n(C)c1=O,AC50,[1],inconclusive
O=C(N[C@H](CO)[C@H](O)c1ccc([N+](=O)[O-])cc1)C(Cl)Cl [CHLORAMPHENICOL],EC50,[6],2.55 µM (active)
same,EC50,[7],1.84 µM (active)
CN1C(C(=O)Nc2ccccn2)=C(O)c2sccc2S1(=O)=O [TENOXICAM],AC50,[2],2.51 µM (inconclusive)
